The source of these data is ChEMBL document CHEMBL1148630, “Conformationally biased P3 amide replacements of beta-secretase inhibitors” (Bioorg Med Chem Lett, 2006).

The term IC50 denotes the concentration at which inhibition is half-maximal. The low end stands for greater potency in that assay, the high end for weaker potency in that assay.

Sequence of Beta-secretase 1 (P56817 whole entry): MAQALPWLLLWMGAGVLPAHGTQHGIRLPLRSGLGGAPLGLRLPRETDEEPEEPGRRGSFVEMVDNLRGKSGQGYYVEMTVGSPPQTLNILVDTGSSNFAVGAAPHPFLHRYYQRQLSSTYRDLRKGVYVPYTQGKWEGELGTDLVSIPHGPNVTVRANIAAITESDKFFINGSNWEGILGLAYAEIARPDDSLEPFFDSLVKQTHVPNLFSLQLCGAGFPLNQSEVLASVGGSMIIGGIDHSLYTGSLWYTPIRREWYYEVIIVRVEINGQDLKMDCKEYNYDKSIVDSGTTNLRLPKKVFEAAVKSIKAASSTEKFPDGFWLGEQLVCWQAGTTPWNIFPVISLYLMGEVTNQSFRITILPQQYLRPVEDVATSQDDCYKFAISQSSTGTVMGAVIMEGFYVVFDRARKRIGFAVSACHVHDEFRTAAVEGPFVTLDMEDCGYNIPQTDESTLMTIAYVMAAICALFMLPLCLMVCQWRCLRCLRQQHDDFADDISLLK

The assay concerns the target Beta-secretase 1 (Homo sapiens, UniProt P56817).
Description: Inhibition of BACE1 activity
The compound `CN(c1cc(CCC2CC2)cc(C(=O)N[C@@H](Cc2ccccc2)[C@H](O)CNC2CC2)c1)S(C)(=O)=O` returned an IC50 of 420 nM.

`CN(c1cc(C(=O)N[C@@H](Cc2ccccc2)[C@H](O)CNC2CC2)cc(C(=O)C2CCCC2)c1)S(C)(=O)=O` registered an IC50 of 180 nM.

For the compound `CN(c1cc(C(=O)N[C@@H](Cc2ccccc2)[C@H](O)CNC2CC2)cc(C(O)Cc2ccccc2)c1)S(C)(=O)=O` (stereo partly drawn), half-maximal inhibition (IC50) required 5500 nM.

In the case of `C=C(c1ccccc1)c1cc(C(=O)N[C@@H](Cc2ccccc2)[C@H](O)CNC2CC2)cc(N(C)S(C)(=O)=O)c1`, the IC50 turned out to be 1300 nM.

The compound `CN(c1cc(Cc2ccccc2)cc(C(=O)N[C@@H](Cc2ccccc2)[C@H](O)CNC2CC2)c1)S(C)(=O)=O` returned a concentration for half-maximal inhibition (IC50) of 4630 nM.

`CN(c1cc(C(=O)Cc2ccccc2)cc(C(=O)N[C@@H](Cc2ccccc2)[C@H](O)CNC2CC2)c1)S(C)(=O)=O` returned an IC50 of 1400 nM.

`CCC(=O)c1cc(C(=O)N[C@@H](Cc2ccccc2)[C@H](O)CNC2CC2)cc(N(C)S(C)(=O)=O)c1`: the midpoint of inhibition, the IC50, lay at 1500 nM.

`CNC(=O)c1cc(C(=O)N[C@@H](Cc2ccccc2)[C@H](O)CNC2CC2)cc(N(C)S(C)(=O)=O)c1` came in with a half-inhibitory concentration (IC50) of 980 nM.

As to `CC(C)C(=O)c1cc(C(=O)N[C@@H](Cc2ccccc2)[C@H](O)CNC2CC2)cc(N(C)S(C)(=O)=O)c1`, the IC50 was 240 nM.

`CN(c1cc(C(=O)N[C@@H](Cc2ccccc2)[C@H](O)CNC2CC2)cc(C(O)c2ccccc2)c1)S(C)(=O)=O` (stereo partly drawn) yielded an IC50 of 5900 nM.

As to `CN(c1cc(C(=O)N[C@@H](Cc2ccccc2)[C@H](O)CNC2CC2)cc(C(=O)C2CCCCC2)c1)S(C)(=O)=O`, half-maximal inhibition (IC50) was put at 450 nM.

For the compound `CN(c1cc(/C=C/C2CC2)cc(C(=O)N[C@@H](Cc2ccccc2)[C@H](O)CNC2CC2)c1)S(C)(=O)=O`, the IC50 was determined as 730 nM.

`CN(c1cc(/C=C\C2CC2)cc(C(=O)N[C@@H](Cc2ccccc2)[C@H](O)CNC2CC2)c1)S(C)(=O)=O` came in with a half-maximal inhibitory concentration (IC50) of 35 nM.
